Results published in patent US20250197387A1, “BCL-XL DEGRADERS AND USES THEREOF” (Kymera Therapeutics, Inc., priority 2021, published 2025).

How the values were obtained:
Type in all cases: cell-based
Caki-2 cells = assay: CTG (CellTiter-Glo) cell viability assay, Caki-2; conditions: Homo sapiens, 72 h, 3 day incubation, read-out: CTG Chempartner - Caki-2 3 day: Average external-IC50
Protocol: Compound-mediated viability effect on MOLT-4 and Caki-2 was quantitatively determined using the CellTiter-Glo® Luminescent Cell Viability Assay kit from Promega (Catalog number G7570) following manufacturer's recommended procedures. Briefly, MOLT-4 and Caki-2 cells were seeded into 384 well plates (Grenier Bio-One, Catalog number 781080) with a density of 10,000 cells per well. Compounds were then added to the assay plate with final top concentration of 10 μM and 1:3 dilution series with total of 9 doses. The final DMSO concentration is normalized to 0.2%. The assay plates were incubated at 37° C., for 3 days under 5% CO2. Then the assay plate was equilibrated at room temperature for 10 minutes. To determine cell viability, 30 uL CellTiter Glo reagent was added to each well and the assay plate was centrifuged at 1000 rpm for 30 second, incubated at room temperature for 10 min, and analyzed by detecting the luminescence using a multimode plate reader (EnVision 2105, PerkinElmer). The data was then analyzed by software Prism 7.0 from GraphPad and the dose response curves are fit using a three-parameter logistic equation to calculate IC50.
The letter codes for MOLT-4 IC50 include: A (<0.1 μM); B (0.1-1.0 μM); C (>1.0-3.0 μM); and D (>3.0 μM). The letter codes for Caki-2 IC50 include: A (<0.1 μM); B (0.1-1.0 μM); C (>1.0-10.0 μM); and D (>10.0 μM).

MOLT-4 cells = assay: CTG (CellTiter-Glo) cell viability assay, MOLT-4; conditions: Homo sapiens, MOLT-4, 72 h, 3 day incubation, read-out: CTG Cell Viability Assay - MOLT-4 3 day: Average external-IC50
Summary of the method: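 IC50 is from a three-parameter logistic fit of CellTiter-Glo luminescence after 3-day treatment of cells seeded at 10,000 per well. Codes: MOLT-4 A <0.1, B 0.1-1.0, C >1.0-3.0, D >3.0 μM; Caki-2 A <0.1, B 0.1-1.0, C >1.0-10.0, D >10.0 μM.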

BCL-XL = target: T1, BCL-XL (Homo sapiens, UniProt Q07817); assay: Bcl-xL ELISA degradation in MOLT-4 cells, 6 h; conditions: for DC50: read-out: Bcl-xL ELISA in MOLT-4 degradation 6 h: Mean external-Abs DC50
T1 construct: endogenous in cells; host or cells: MOLT-4
Protocol: The letter codes for BCL-XL DC50 include: A (<0.01 μM); B (0.01-0.1 μM); C (>[…]); D (>0.5-1.0 μM); and E (>1.0 μM). The letter codes for Dmax % include A (>75%); B (50 to 75%); C (<50%).

T1 sequence (Q07817 whole entry): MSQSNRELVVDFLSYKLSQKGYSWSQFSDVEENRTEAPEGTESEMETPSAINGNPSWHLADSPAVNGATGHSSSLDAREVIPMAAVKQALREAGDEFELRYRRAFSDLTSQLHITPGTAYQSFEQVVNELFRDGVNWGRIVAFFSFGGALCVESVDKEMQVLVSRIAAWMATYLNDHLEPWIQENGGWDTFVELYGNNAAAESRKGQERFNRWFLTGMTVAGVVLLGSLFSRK

| Structure (SMILES) | IC50 (Caki-2 cells) [nM] | IC50 (MOLT-4 cells) [nM] | Dmax (BCL-XL) [%] | DC50 (BCL-XL) [nM] |
| --- | --- | --- | --- | --- |
| Cc1ncsc1-c1ccc([C@H](C)NC(=O)[C@@H]2C[C@@H](O)CN2C(=O)[C@@H](NC(=O)CCCc2ccc(S(=O)(=O)NCc3nc(N4CCc5cccc(C(=O)Nc6nc7ccccc7s6)c5C4)ccc3-c3cnn(CC4CCCCC4)c3C)cc2)C(C)(C)C)cc1 [I-307] | > 10000 | 1000 to 3000 | < 50 | > 1000 |
| Cc1ncsc1-c1ccc([C@H](C)NC(=O)[C@@H]2C[C@@H](O)CN2C(=O)[C@@H](NC(=O)C2CCN(C3CCN(S(=O)(=O)NC(=O)c4nc(N5CCc6cccc(C(=O)Nc7nc8ccccc8s7)c6C5)ccc4-c4cnn(CC5CCCCC5)c4C)CC3)CC2)C(C)(C)C)cc1 [I-308] | 1000 to 10000 | < 100 | > 75 | 100 to 500 |
| Cc1ncsc1-c1ccc([C@H](C)NC(=O)[C@@H]2C[C@@H](O)CN2C(=O)[C@@H](NC(=O)CCCCCS(=O)(=O)NC(=O)c2nc(N3CCc4cccc(C(=O)Nc5nc6ccccc6s5)c4C3)ccc2-c2cccc(OC(C)C)c2C)C(C)(C)C)cc1 [I-309] | 1000 to 10000 | 1000 to 3000 | 50 to 75 | 100 to 500 |
| Cc1ncsc1-c1ccc([C@H](C)NC(=O)[C@@H]2C[C@@H](O)CN2C(=O)[C@@H](NC(=O)C2CCN(c3ccc(S(=O)(=O)NC(=O)c4nc(N5CCCc6c5nnc(Nc5nc7ccccc7s5)c6C)ccc4-c4cnn(CC5CCCCC5)c4C)cc3)CC2)C(C)(C)C)cc1 [I-310] | > 10000 | < 100 | > 75 | 10 to 100 |
| Cc1ncsc1-c1ccc([C@H](C)NC(=O)[C@@H]2C[C@@H](O)CN2C(=O)[C@@H](NC(=O)CCS(=O)(=O)NC(=O)c2nc(N3CCc4cccc(C(=O)Nc5nc6ccccc6s5)c4C3)ccc2-c2cnn(CC3CCCCC3)c2C)C(C)(C)C)cc1 [I-311] | 1000 to 10000 | < 100 | > 75 | 100 to 500 |
| Cc1ncsc1-c1ccc([C@H](C)NC(=O)[C@@H]2C[C@@H](O)CN2C(=O)[C@@H](NC(=O)CCCCCCS(=O)(=O)NC(=O)c2nc(N3CCc4cccc(C(=O)Nc5nc6ccccc6s5)c4C3)ccc2-c2cnn(CC3CCCCC3)c2C)C(C)(C)C)cc1 [I-312] | 1000 to 10000 | < 100 | > 75 | 10 to 100 |
| Cc1ncsc1-c1ccc([C@H](C)NC(=O)[C@@H]2C[C@@H](O)CN2C(=O)[C@@H](NC(=O)C2CCC(O)(c3ccc(S(=O)(=O)NC(=O)c4nc(N5CCc6cccc(C(=O)Nc7nc8ccccc8s7)c6C5)ccc4-c4cnn(CC5CCCCC5)c4C)cc3)CC2)C(C)(C)C)cc1 (some centres unmarked) [I-314] | 1000 to 10000 | 100 to 1000 | < 50 | > 1000 |
| Cc1ncsc1-c1ccc([C@H](C)NC(=O)[C@@H]2C[C@@H](O)CN2C(=O)[C@@H](NC(=O)CCCCCS(=O)(=O)NC(=O)c2nc(N3CCc4cccc(C(=O)Nc5nc6ccccc6s5)c4C3)ccc2-c2ccnc(OC(C)C)c2C)C(C)(C)C)cc1 [I-315] | > 10000 | < 100 | > 75 | 10 to 100 |
| Cc1ncsc1-c1ccc([C@H](C)NC(=O)[C@@H]2C[C@@H](O)CN2C(=O)[C@@H](NC(=O)C2CCN(c3ccc(S(=O)(=O)NC(=O)c4nc(N5CCc6cccc(C(=O)Nc7nc8ccccc8s7)c6C5)ccc4-c4cnn(CC5CCCCC5)c4C)cc3CO)CC2)C(C)(C)C)cc1 [I-316] | > 10000 | 100 to 1000 | 50 to 75 | 100 to 500 |
| Cc1ncsc1-c1ccc([C@H](C)NC(=O)[C@@H]2C[C@@H](O)CN2C(=O)[C@@H](NC(=O)CCCCS(=O)(=O)NC(=O)c2nc(N3CCc4cccc(C(=O)Nc5nc6ccccc6s5)c4C3)ccc2-c2cnn(CC3CCCCC3)c2C)C(C)(C)C)cc1 [I-317] | 1000 to 10000 | 100 to 1000 | > 75 | 10 to 100 |
| Cc1ncsc1-c1ccc(CNC(=O)[C@@H]2C[C@@H](O)CN2C(=O)[C@@H](NC(=O)CCc2ccc(S(=O)(=O)NC(=O)c3nc(N4CCc5cccc(C(=O)Nc6nc7ccccc7s6)c5C4)ccc3-c3cnn(CC(C)C)c3C)cc2)C(C)(C)C)cc1 [I-318] | 1000 to 10000 | < 100 | > 75 | 10 to 100 |
